Assays:
FGFR3 = FGFR3 (Homo sapiens (Human), UniProt P22607); assay: FGFR Enzyme Activity Assay (LanthaScreen TR-FRET), FGFR3; type: biochemical; details: 25 μM ATP, 10 minute incubation; read-out: FGFR3 Enz FRET IC50
Protocol: FGFR3 kinase activity was measured by the Invitrogen LanthaScreen™ Assay technology which directly measures the amount of substrate phosphorylation by TR-FRET using a flourescently-labeled peptide and Europium-labeled antibody. Briefly, 750 pM N-terminal GST-HIS6 fusion protein with a 3C cleavage site recombinant human FGFR3 (amino acids R397-T806) (ProQinase Cat. No. 1068-0000-1) was incubated with 100 nM Alexa Fluor® 647-Poly-GT Peptide Substrate (Life Technologies Cat. No. PV5836) and 25 μM ATP along with test compound in a buffer consisting of 250 mM HEPES, 25 mM MgCl2, 0.05% TritonX-100, pH 7.5, and 2% DMSO. Compounds were typically prepared in a threefold serial dilution in DMSO and added to the assay to give the appropriate final concentration. After a 10 minute incubation at 22° C., an equal volume of 2 nM LanthaScreen® Eu-PY20 Antibody (Life Technologies Cat. No. PV5691) and 10 mM EDTA were added to quench the kinase reaction and start the detection reaction. After an additional 60 minute incubation at 22° C., the reaction was measured using a PerkinElmer EnVision multimode plate reader via TR-FRET dual wavelength detection, and the percent of control (POC) calculated using a ratiometric emission factor. 100 POC was determined using no test compounds and 0 POC was determined using no enzyme. The POC values were fit to a 4-parameter logistic curve as a function of the concentration of the compound, and the IC50 value is the point where the curve crosses 50 POC.

phosphorylated FGFR3 = phosphorylated FGFR3 (Homo sapiens (Human), UniProt P22607); assay: FGFR Enzyme Binding Assay (HTRF tracer displacement), FGFR3; details: 5 nM phosphorylated FGFR3, 60 minute incubation at 22° C.; read-out: FGFR3 Enz Binding IC50
Chain of phosphorylated FGFR3 (P22607 449-759): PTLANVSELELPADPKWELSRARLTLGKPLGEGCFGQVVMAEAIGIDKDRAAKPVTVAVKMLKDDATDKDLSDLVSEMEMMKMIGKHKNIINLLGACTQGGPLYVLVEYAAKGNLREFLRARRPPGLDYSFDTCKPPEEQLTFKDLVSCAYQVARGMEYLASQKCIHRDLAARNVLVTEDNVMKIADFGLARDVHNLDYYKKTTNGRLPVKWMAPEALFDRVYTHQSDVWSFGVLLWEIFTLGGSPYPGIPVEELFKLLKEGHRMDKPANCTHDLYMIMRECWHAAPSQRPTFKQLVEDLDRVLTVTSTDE
Protocol: The potency of compounds inhibiting human isoforms of FGFR kinase was determined using Life Technologies' Homogeneous Time Resolved Fluorescence (HTRF)-based binding assay technology. An incubation was conducted with either 5 nM dephosphorylated FGFR1 (Array Biopharma, p1702; SEQ ID NO: 1, amino acids 458 to 765, dephosphorylated by co-expression with PTP1b (protein tyrosine phosphatase 1B)), 5 nM dephosphorylated FGFR2 (Life Technologies, Cat. No. PV4106 that had been dephosphorylated with Lambda protein phosphatase (New England Biolabs, cat #P0753)) or 5 nM phosphorylated FGFR3 (Array Biopharma, p1836; SEQ ID NO: 5, amino acids 449 to 759), 50 nM Kinase Tracer 236 (Life Technologies Cat. No. PR9078A), 2 nM Biotin-anti-6HIS (Life Technologies Cat. No. PV6090) and 2 nM Europium-Streptavidin (Life Technologies Cat. No. PV6025) along with test compound in a buffer consisting of 50 mM HEPES ((4-(2-hydroxyethyl)-1-piperazineethanesulfonic acid, pH 7.5), 5 mM MgCl2, 0.005% Triton X-100, 1 mM DTT, 1 mM NaVO4 and 2% DMSO in a final volume of 12 μL Compounds were typically prepared as a 3-fold or 4-fold serial dilution in DMSO and added to the assay to give the appropriate final concentration. After a 60 minute incubation at 22° C., the extent of tracer displacement was determined using a PerkinElmer EnVision multimode plate reader via HTRF dual wavelength detection, and the percent of control (POC) was calculated using a ratiometric emission factor. One hundred POC was determined using no test compound, and 0 POC was determined in the presence of 1 μM of an appropriate control inhibitor. A 4-parameter logistic curve was fit to the POC values as a function of the concentration of compound, and the IC50 value was the point where the best-fit curve crossed 50 POC.

[1] = biological target: recombinant human FGFR1 catalytic domain (Homo sapiens (Human), UniProt P11362); assay: FGFR Enzyme Activity Assay (LanthaScreen TR-FRET), FGFR1; type: biochemical; details: 15 μM ATP, 20 minutes incubation; read-out: FGFR1 Enz FRET IC50
Chain of recombinant human FGFR1 catalytic domain (P11362 other isoform, or with tags, fused parts or gaps): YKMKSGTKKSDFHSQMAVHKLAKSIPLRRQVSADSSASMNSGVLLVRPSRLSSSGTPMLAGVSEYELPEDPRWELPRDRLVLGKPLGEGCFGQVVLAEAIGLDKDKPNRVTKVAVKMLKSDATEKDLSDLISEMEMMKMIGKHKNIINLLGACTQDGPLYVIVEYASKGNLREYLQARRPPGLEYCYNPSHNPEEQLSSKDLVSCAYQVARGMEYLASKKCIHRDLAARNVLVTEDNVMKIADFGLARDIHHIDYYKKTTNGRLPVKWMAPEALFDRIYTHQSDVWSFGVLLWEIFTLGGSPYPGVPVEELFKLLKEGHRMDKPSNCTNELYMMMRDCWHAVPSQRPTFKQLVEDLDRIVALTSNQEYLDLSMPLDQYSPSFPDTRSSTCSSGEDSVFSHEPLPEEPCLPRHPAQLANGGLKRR
Protocol: FGFR1 kinase activity was measured by the Invitrogen LanthaScreen™ Assay technology which directly measures the amount of substrate phosphorylation by Time-resolved fluorescence energy transfer (TR-FRET) using a flourescently-labeled peptide and Europium-labeled antibody. Briefly, 200 pM His-tagged recombinant human FGFR1 catalytic domain (amino acids 308-731) (Life Technologies Cat. No. PR4660A) was incubated with 100 nM Alexa Fluor® 647-Poly-GT Peptide Substrate (Life Technologies Cat. No. PV5836) and 15 μM ATP along with test compound in a buffer consisting of 250 mM HEPES, 25 mM MgCl2, 0.05% TritonX-100, pH 7.5, and 2% DMSO. Compounds were typically prepared in a threefold serial dilution in DMSO and added to the assay to give the appropriate final concentration. After a 20 minutes incubation at 22° C., an equal volume of 2 nM LanthaScreen® Eu-PY20 Antibody (Life Technologies Cat. No. PV5691) and 10 mM EDTA was added to quench the kinase reaction and start the detection reaction. After an additional 60 minute incubation at 22° C., the reaction was measured using a PerkinElmer EnVision multimode plate reader via TR-FRET dual wavelength detection, and the percent of control (POC) calculated using a ratiometric emission factor. 100 POC was determined using no test compounds and 0 POC was determined using no enzyme. The POC values were fit to a 4-parameter logistic curve as a function of the concentration of the compound, and the IC50 value is the point where the curve crosses 50 POC.

human wild type FGFR1 = human wild type FGFR1 (Homo sapiens (Human), UniProt P11362); assay: FGFR1 pERK Cell Assay; type: cell-based; details: HEK-293 cells, 1 hour compound, 100 ng/ml human FGF-acidic; maximum concentration 5 μM
Chain of human wild type FGFR1 (P11362 22-822): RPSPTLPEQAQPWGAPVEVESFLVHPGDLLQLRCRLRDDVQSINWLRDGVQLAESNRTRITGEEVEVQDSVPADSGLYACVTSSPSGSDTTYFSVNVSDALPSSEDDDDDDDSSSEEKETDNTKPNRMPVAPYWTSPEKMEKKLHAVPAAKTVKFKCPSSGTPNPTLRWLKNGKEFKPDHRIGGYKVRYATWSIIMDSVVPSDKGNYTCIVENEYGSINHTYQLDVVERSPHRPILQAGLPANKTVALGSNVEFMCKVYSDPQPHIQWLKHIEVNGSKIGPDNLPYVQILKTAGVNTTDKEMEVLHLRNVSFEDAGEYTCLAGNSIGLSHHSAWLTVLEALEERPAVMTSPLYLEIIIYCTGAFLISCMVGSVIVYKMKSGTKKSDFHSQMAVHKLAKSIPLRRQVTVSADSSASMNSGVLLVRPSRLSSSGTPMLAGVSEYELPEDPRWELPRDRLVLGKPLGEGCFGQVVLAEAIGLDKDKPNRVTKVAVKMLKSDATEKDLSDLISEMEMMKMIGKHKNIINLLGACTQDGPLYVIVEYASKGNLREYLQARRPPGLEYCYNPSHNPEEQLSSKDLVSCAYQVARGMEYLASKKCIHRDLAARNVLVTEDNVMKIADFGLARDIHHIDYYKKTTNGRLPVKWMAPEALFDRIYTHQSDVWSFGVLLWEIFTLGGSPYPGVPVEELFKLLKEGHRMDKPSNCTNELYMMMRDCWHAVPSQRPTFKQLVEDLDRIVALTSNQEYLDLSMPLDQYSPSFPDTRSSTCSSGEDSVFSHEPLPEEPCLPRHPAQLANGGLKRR
Protocol: HEK-293 cells transfected with doxycycline(dox)-inducible human wild type FGFR1 (SEQ ID NO: 1) were plated in a collagen or poly-D-lysine coated 96 well flat bottom plates at 4×10^5 cells/well in complete Dulbecco's Modified Eagle Medium (DMEM) containing 10% FBS and 1 μg/ml doxycycline and allowed to attach for 24 h at 37° C., 5% CO2. Cells were treated with compound using 1:3 serial dilutions with a maximum final concentration of 5 μM. Compound was incubated on cells for 1 hour at 37° C., 5% CO2. Cells were then stimulated with a final concentration of 100 ng/ml human FGF-acidic (R&D Systems Cat number 232-FA/CF) for 5 minutes at 37° C., 5% CO2. Medium was removed, and cells were lysed with lysis buffer containing phosphatase and protease inhibitors. Phospho ERK1/2 was measured using the Meso Scale Discovery sandwich assay (Meso Scale Discovery cat. no. K151DWD). The assay captures phospho ERK1/2 and detects with a sulfo-tagged total ERK1/2 antibody. The chemiluminescent signal was read on the Sector Imager Plate reader. 100 POC was determined using no test compound and 0 POC was determined using a control compound. The POC values were fit to a 4-parameter logistic curve as a function of the concentration of the compound, and the IC50 value is the point where the curve crosses 50 POC.

Chain of FGFR3 (P22607 397-806): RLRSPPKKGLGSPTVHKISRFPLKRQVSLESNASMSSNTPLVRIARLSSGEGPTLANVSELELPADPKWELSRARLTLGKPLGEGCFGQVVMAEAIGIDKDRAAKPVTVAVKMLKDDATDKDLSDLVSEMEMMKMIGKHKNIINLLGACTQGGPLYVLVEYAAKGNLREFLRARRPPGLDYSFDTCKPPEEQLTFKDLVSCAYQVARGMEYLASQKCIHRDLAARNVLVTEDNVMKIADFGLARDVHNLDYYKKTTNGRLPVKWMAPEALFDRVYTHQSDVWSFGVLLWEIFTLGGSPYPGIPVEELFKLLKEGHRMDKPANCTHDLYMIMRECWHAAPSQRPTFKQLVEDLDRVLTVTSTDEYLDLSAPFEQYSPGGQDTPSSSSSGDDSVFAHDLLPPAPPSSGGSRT

Compound | IC50 (FGFR3) | IC50 (phosphorylated FGFR3) | IC50 [1] | IC50 (human wild type FGFR1)
COc1cc(Nc2ccc3ncc(-c4c(C)nn(C5CCN(C(=O)C6(F)CN(C(=O)/C=C/CN(C)C)C6)CC5)c4C)nc3c2)cc(OC)c1 [Example 23, (E)-1-(3-(4-(4-(7-((3,5-dimethoxyphenyl)amino)-quinoxalin-2-yl)-3,5-dimethyl-1H-pyrazol-1-yl)piperidine-1-carbonyl)-3-fluoroazetidin-1-yl)-4-(dimethylamino)but-2-en-1-one] | 972 nM | 13 nM | 5000 nM | 1940 nM
COc1cc(Nc2ccc3ncc(-c4ccc(N5CCN(C(=O)C6(F)CN(C(=O)/C=C/CN(C)C)C6)CC5)nc4)nc3c2)cc(OC)c1 [Example 7, (E)-1-(3-(4-(5-(7-((3,5-dimethoxyphenyl)amino)-quinoxalin-2-yl)pyridin-2-yl)piperazine-1-carbonyl)-3-fluoroazetidin-1-yl)-4-(dimethylamino)but-2-en-1-one] | 277 nM | 11 nM | 364 nM | 1530 nM
C=CC(=O)N1CC(OC)(C(=O)N2CCC(n3cc(-c4cnc5ccc(Nc6cc(OC)cc(OC)c6)cc5n4)cn3)CC2)C1 [Example 24, 1-(3-(4-(4-(7-((3,5-dimethoxyphenyl)amino)-quinoxalin-2-yl)-1H-pyrazol-1-yl)piperidine-1-carbonyl)-3-methoxy-azetidin-1-yl)prop-2-en-1-one] | 24 nM | 9 nM | 229 nM | 225 nM
C=CC(=O)N1CC(C(=O)N2CCN(c3cccc(-c4cnc5ccc(Nc6cc(OC)cc(OC)c6)cc5n4)c3)CC2)C1 [Example 25, 1-(3-(4-(3-(7-((3,5-dimethoxyphenyl)amino)-quinoxalin-2-yl)phenyl)-piperazine-1-carbonyl)-azetidin-1-yl)prop-2-en-1-one] | 479 nM | 327 nM | 1760 nM | –
COc1cc(Nc2ccc3ncc(-c4ccc(N5CCN(C(=O)C6(F)CN(C(=O)/C=C/CN(C)C)C6)CC5)nc4C)nc3c2)cc(OC)c1 [Example 13, (E)-1-(3-(4-(5-(7-((3,5-dimethoxyphenyl)amino)-quinoxalin-2-yl)-6-methylpyridin-2-yl)-piperazine-1-carbonyl)-3-fluoroazetidin-1-yl)-4-(dimethylamino)but-2-en-1-one] | 1830 nM | 335 nM | 2150 nM | –

The next molecules have a lower IC50 (FGFR3) than those just listed; values first:

IC50 (FGFR3) | IC50 (phosphorylated FGFR3) | IC50 [1] | IC50 (human wild type FGFR1) | Compound
10 nM | 5 nM | 51 nM | 350 nM | C=CC(=O)N1CCC(C(=O)N2CCC(n3cc(-c4cnc5ccc(Nc6cc(OC)cc(OC)c6)cc5n4)cn3)CC2)CC1 [Example 3, 1-(4-(4-(4-(7-((3,5-dimethoxyphenyl)amino)-quinoxalin-2-yl)-1H-pyrazol-1-yl)piperidine-1-carbonyl)piperidin-1-yl)prop-2-en-1-one]
7 nM | 3 nM | 44 nM | 149 nM | COc1cc(Nc2ccc3ncc(-c4cnn(C5CCN(C(=O)C6(C#N)CN(C(=O)/C=C/CN(C)C)C6)CC5)c4)nc3c2)cc(OC)c1 [Example 11, (E)-3-(4-(4-(7-((3,5-dimethoxyphenyl)amino)-quinoxalin-2-yl)-1H-pyrazol-1-yl)piperidine-1-carbonyl)-1-(4-(dimethyl-amino)but-2-enoyl)-azetidine-3-carbonitrile]
13 nM | 3 nM | 89 nM | 149 nM | C=CC(=O)N1CC(C#N)(C(=O)N2CCC(n3cc(-c4cnc5ccc(Nc6cc(OC)cc(OC)c6)cc5n4)cn3)CC2)C1 [Example 12, 1-acryloyl-3-(4-(4-(7-((3,5-dimethoxyphenyl)-amino)quinoxalin-2-yl)-1H-pyrazol-1-yl)-piperidine-1-carbonyl)-azetidine-3-carbonitrile]
10 nM | 3 nM | 89 nM | 170 nM | C=CC(=O)N1CC(F)(C(=O)N2CCC(n3cc(-c4cnc5ccc(Nc6cc(OC)cc(OC)c6)cc5n4)cn3)CC2)C1 [Example 4, 1-(3-(4-(4-(7-((3,5-dimethoxyphenyl)amino)-quinoxalin-2-yl)-1H-pyrazol-1-yl)piperidine-1-carbonyl)-3-fluoro-azetidin-1-yl)prop-2-en-1-one]
18 nM | 5 nM | 48 nM | 3000 nM | C=CC(=O)N1CC(C(=O)N2CC(n3cc(-c4cnc5ccc(Nc6cc(OC)cc(OC)c6)cc5n4)cn3)C2)C1 [Example 16, 1-(3-(3-(4-(7-((3,5-dimethoxyphenyl)amino)-quinoxalin-2-yl)-1H-pyrazol-1-yl)azetidine-1-carbonyl)azetidin-1-yl)-prop-2-en-1-one]
6 nM | 2 nM | 21 nM | 34 nM | C#CCN(c1cc(OC)cc(OC)c1)c1ccc2ncc(-c3cnn(C4CCN(C(=O)C5(F)CN(C(=O)/C=C/CN(C)C)C5)CC4)c3)nc2c1 [Example 28, (E)-1-(3-(4-(4-(7-((3,5-dimethoxyphenyl)(prop-2-yn-1-yl)amino)quinoxalin-2-yl)-1H-pyrazol-1-yl)piperidine-1-carbonyl)-3-fluoroazetidin-1-yl)-4-(dimethylamino)but-2-en-1-one]

— US12351571B2, “Substituted quinoxaline compounds as inhibitors of FGFR tyrosine kinases” (ARRAY BIOPHARMA INC., priority 2018, dated 2025)
